{
  "source": "patent US20260227408A1",
  "about": "“Compositions and Methods for Modulation of Immune Responses” (Flagship Pioneering Innovations VI, LLC, priority 2022, published 2026)",
  "key": {"[1]": {"tested_on": "Peripheral Blood Mononuclear Cells (PBMCs)", "assay": "single cell RNA-seq of PBMCs treated with target protein", "type": "cell-based, human", "conditions": "24 hours, vs scrambled protein control, FIG. 5A, 5B", "description": "(§1) To determine the effect of the Target Protein on TLR activity, the Target Protein, irrelevant proteins and controls were applied+/−established TLR agonists to a commercial reporter cell line which monitors the two main signal transduction pathways that respond to TLR activation. To determine which immune cells are most responsive to the Target Proteins, the Target Proteins were applied to Peripheral Blood Mononuclear Cells (PBMCs) and then 24 hours later the PBMCs were subjected to single cell RNA-seq using cell hashing.\nscRNA-seq: From example: Shifts in cell populations after treatment with Target Proteins are assessed by single cell RNA-seq (scRNA-seq). Target proteins (e.g., listed in the Sequence Listing) are synthesized through Fluorenylmethyloxycarbonyl (Fmoc) protection group chemistry using Solid Phase Peptide Synthesis (SPPS). Human primary blood mononuclear cells are seeded at […] in each well of 12-well plate with 1 ml of RPMI-1640 (10% FBS). […]\nPost sequencing, reads are aligned to the human reference genome (GENCODE34/GRCH38). Reads are demultiplexed using DNA-barcoded antibodies and run through quality control (g. doublets are removed, singlet cells are selected with less than 15% mitochondria contamination at RNA levels and reads contain higher than 500 genes). […]"}, "[2]": {"tested_on": "Interferon Regulatory Factor (IRF) pathway in THP-1 dual reporter cells", "assay": "THP-1 dual reporter assay (IRF-Lucia luciferase) with TLR agonists", "type": "cell-based", "description": "as §1\nDual Reporter Assay: From example: NF-kB-SEAP and IRF-Lucia luciferase reporter monocyte (THP1) cells (InvivoGen) are cultured in RPMI 1640 media supplemented with HEPES buffer (10 mM), sodium pyruvate (1 mM), glucose (4.5 g/L), fetal bovine serum (10%), penicillin (100 U/mL), streptomycin ([…]), and 2-mercaptoethanol (0.05 mM). THP1 cells are treated with 100 ng/mL LPS (Sigma-Aldrich) for 24 hrs, the target protein (final conc. 10 μM), or left untreated.\nAfter treatment, THP1 cells are cultured for 24 hrs and then assayed for reporter activity. Both reporter proteins are measurable in the cell culture supernatant when using QUANTI-Blue (InvivoGen), a SEAP detection reagent, and QUANTI-Luc (InvivoGen), a luciferase detection reagent. QUANTI-Blue is a colorimetric enzyme assay developed to determine any alkaline phosphatase activity in a biological sample, such as cell culture supernatant. QUANTI-Luc is a lyophilized assay reagent containing all the components required to quantitatively measure the activity of Lucia Luciferase other coelenterazine-utilizing luciferases. Increased reporter activity after treatment with target protein is observed in cells where the target protein is immune stimulating. Additionally, decreased reporter activity after treatment with the target protein is observed in cells where the target protein is immune dampening."}, "[3]": {"conditions": "10 μM, 24 hours, vs scramble peptide, FIG. 4"}},
  "data": [
    {"substance": "SEQ ID NO: 37413: Target Protein validated as a modulator of the innate immune response; toll-like receptor (TLR) inhibitor (MAAPSNKTELAWSPRLAA; listed as Homo sapiens)", "values": [
      {"measurement": "effect on T-cells, B-cells, and NK-cells (up- and downregulated genes, scRNA-seq)", "setting": "[1]", "result": "relatively small effects"},
      {"measurement": "effect on active monocytes and dendritic cells (up- and downregulated genes, scRNA-seq)", "setting": "[1]", "result": "strongly affected"},
      {"measurement": "IRF response, co-treatment with TLR1/2 agonist", "setting": "[2]; [3]", "result": "inhibited"},
      {"measurement": "IRF response, co-treatment with TLR2 agonist", "setting": "[2]; [3]", "result": "no significant effect"},
      {"measurement": "IRF response, co-treatment with TLR3 agonist", "setting": "[2]; [3]", "result": "no significant effect"},
      {"measurement": "IRF response, co-treatment with TLR4 agonist", "setting": "[2]; [3]", "result": "inhibited"},
      {"measurement": "IRF response, co-treatment with TLR5 agonist", "setting": "[2]; [3]", "result": "no significant effect"},
      {"measurement": "IRF response, co-treatment with TLR6/2 agonist", "setting": "[2]; [3]", "result": "inhibited"},
      {"measurement": "IRF response, co-treatment with TLR7 agonist", "setting": "[2]; [3]", "result": "no significant effect"},
      {"measurement": "IRF response, co-treatment with TLR8 agonist", "setting": "[2]; [3]", "result": "no significant effect"},
      {"measurement": "IRF response, co-treatment with TLR9 agonist", "setting": "[2]; [3]", "result": "no significant effect"},
      {"measurement": "IRF signal transduction pathway response from several TLRs", "setting": "[2]; THP-1 dual reporter cells, FIG. 3, FIG. 4", "result": "significantly blocks"},
      {"measurement": "relative IRF activity (reporter gene expression)", "setting": "[2]; increasing peptide concentrations (0, 2.5, 5, 7.5, and 10 PM) in presence of LPS, 24 hours, FIG. 3", "result": "inhibition"}
    ]}
  ]
}
